Data taken from the NIST ThermoML archive (doi:10.1021/je050195w).
Numbers after ± are expanded uncertainties.

Conditions: Crystal; DTA

Q: With CC(=O)[C@@]12O[C@@H]1C[C@H]1[C@@H]3CCC4=CC(=O)CC[C@]4(C)[C@H]3CC[C@@]12C [16α,17-epoxypregn-4-ene-3,20-dione] as the compound, how does the Normal melting temperature read?
A: 205.50 ± 1.1 °C
